Results as given in ChEMBL document CHEMBL1201862, “PubChem BioAssay data set” (2004).
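Exposure lasted 48 hours, with cells grown in 96-well plates and compounds tested at five concentrations. GI50 is the concentration that inhibits growth by half.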 Active and inactive are the calls of the source. Rule as the data show it: active = GI50 up to about 1.1 µM and inactive = higher.

Tests used:
Assay in all cases: NCI-60 cell line screen, 48 h
[1] = tested on: A549
[2] = tested on: HCC 2998
[3] = tested on: HCT-116
[4] = tested on: HCT-15
[5] = tested on: HT-29
[6] = tested on: IGROV-1
[7] = tested on: K562
[8] = tested on: LOX IMVI
[9] = tested on: M14
[10] = tested on: NCI-H226
[11] = tested on: NCI-H460
[12] = tested on: OVCAR-3
[13] = tested on: OVCAR-4
[14] = tested on: OVCAR-8
[15] = tested on: SK-MEL-28
[16] = tested on: SK-MEL-2
[17] = tested on: SNB-19
[18] = tested on: UACC-257
[19] = tested on: T47D

C=C1CC[C@H]2C(=O)OC(c3ccoc3)C[C@]2(C)C/C=C\C=C/1C(=O)OC (some centres undefined)
GI50 [1]: > 25 µM (inactive)
GI50 [2]: > 25 µM (inactive)
GI50 [3]: > 25 µM (inactive)
GI50 [4]: > 25 µM
GI50 [5]: > 25 µM (inactive)
GI50 [6]: > 25 µM (inactive)
GI50 [7]: > 25 µM (inactive)
GI50 [8]: > 25 µM (inactive)
GI50 [9]: > 25 µM (inactive)
GI50 [10]: > 25 µM (inactive)
GI50 [11]: > 25 µM (inactive)
GI50 [12]: 13.9 µM (inactive)
GI50 [13]: > 25 µM (inactive)
GI50 [14]: > 25 µM (inactive)
GI50 [15]: > 25 µM (inactive)
GI50 [16]: > 25 µM (inactive)
GI50 [17]: > 25 µM (inactive)
GI50 [18]: > 25 µM (inactive)

COc1cc(C2SCC(=O)N2c2cc(Cl)c(Cl)cc2Cl)cc(OC)c1OC (centres undefined)
GI50 [1]: 38.5 µM (inactive)
GI50 [2]: 32.1 µM (inactive)
GI50 [3]: 38.3 µM (inactive)
GI50 [4]: 29.7 µM
GI50 [5]: 76.7 µM (inactive)
GI50 [6]: 62.4 µM (inactive)
GI50 [7]: 42 µM (inactive)
GI50 [8]: 33.7 µM (inactive)
GI50 [9]: 54.2 µM (inactive)
GI50 [10]: 63.1 µM (inactive)
GI50 [11]: 36.3 µM (inactive)
GI50 [12]: 22.2 µM (inactive)
GI50 [13]: 38.6 µM (inactive)
GI50 [14]: 66.5 µM (inactive)
GI50 [15]: 84.5 µM (inactive)
GI50 [16]: 63 µM (inactive)
GI50 [17]: 51.8 µM (inactive)
GI50 [18]: 36.8 µM (inactive)

Nc1c(-c2nc3ccccc3[nH]2)sc(=S)n1-c1ccc(Cl)cc1
GI50 [1]: 23.5 µM (inactive)
GI50 [2]: 21.8 µM (inactive)
GI50 [4]: 25.4 µM
GI50 [5]: 19.7 µM (inactive)
GI50 [6]: 28.6 µM (inactive)
GI50 [7]: 32.8 µM (inactive)
GI50 [8]: 26.1 µM (inactive)
GI50 [9]: 30.3 µM (inactive)
GI50 [10]: 26.5 µM (inactive)
GI50 [12]: 18.5 µM (inactive)
GI50 [13]: 20 µM (inactive)
GI50 [14]: 23.8 µM (inactive)
GI50 [15]: 33.7 µM (inactive)
GI50 [16]: 25.6 µM (inactive)
GI50 [17]: 25.7 µM (inactive)
GI50 [18]: 25.5 µM (inactive)

O=C(Sc1c(-c2ccccc2)c(=O)n(-c2ccccc2)c(=S)n1-c1ccccc1)c1ccccc1
GI50 [1]: > 100 µM (inactive)
GI50 [3]: 56 µM (inactive)
GI50 [4]: 60.7 µM
GI50 [5]: 57.9 µM (inactive)
GI50 [6]: > 100 µM (inactive)
GI50 [7]: 29 µM (inactive)
GI50 [8]: 26.4 µM (inactive)
GI50 [9]: 61.1 µM (inactive)
GI50 [10]: > 100 µM (inactive)
GI50 [11]: > 100 µM (inactive)
GI50 [12]: > 100 µM (inactive)
GI50 [13]: > 100 µM (inactive)
GI50 [14]: 99.3 µM (inactive)
GI50 [15]: > 100 µM (inactive)
GI50 [16]: > 100 µM (inactive)
GI50 [17]: > 100 µM (inactive)
GI50 [19]: 71.1 µM (inactive)
GI50 [18]: > 100 µM (inactive)

O=c1c2c(nc3[nH]ccn13)CCC2
GI50 [1]: > 10 µM (inactive)
GI50 [3]: > 10 µM (inactive)
GI50 [4]: > 10 µM
GI50 [5]: > 10 µM (inactive)
GI50 [6]: > 10 µM (inactive)
GI50 [7]: > 10 µM (inactive)
GI50 [8]: > 10 µM (inactive)
GI50 [9]: > 10 µM (inactive)
GI50 [10]: > 10 µM (inactive)
GI50 [11]: > 10 µM (inactive)
GI50 [12]: > 10 µM (inactive)
GI50 [13]: > 10 µM (inactive)
GI50 [14]: > 10 µM (inactive)
GI50 [15]: > 10 µM (inactive)
GI50 [16]: > 10 µM (inactive)
GI50 [17]: > 10 µM (inactive)
GI50 [19]: > 10 µM (inactive)
GI50 [18]: > 10 µM (inactive)

OCc1cc2c(ccc3sc4ccc5sc6ccc7ncccc7c6c5c4c32)s1
GI50 [1]: 11.4 µM (inactive)
GI50 [3]: 8.47 µM (inactive)
GI50 [4]: 10.7 µM
GI50 [5]: 15.5 µM (inactive)
GI50 [6]: 7.29 µM (inactive)
GI50 [7]: 22.4 µM (inactive)
GI50 [8]: 12.6 µM (inactive)
GI50 [10]: 30.1 µM (inactive)
GI50 [11]: 7.08 µM (inactive)
GI50 [12]: 16.9 µM (inactive)
GI50 [13]: 25.2 µM (inactive)
GI50 [14]: 12.1 µM (inactive)
GI50 [15]: 27.2 µM (inactive)
GI50 [16]: 14.5 µM (inactive)
GI50 [17]: 11.3 µM (inactive)
GI50 [19]: 8.22 µM (inactive)
GI50 [18]: 13.6 µM (inactive)

COc1cc([C@@H]2c3cc4c(cc3[C@@H](/N=C/c3ccc(C(=O)O[C@@H](C(=O)O[C@H]5C[C@@]6(O)[C@@H](OC(=O)c7ccccc7)[C@@H]7[C@]8(OC(C)=O)CO[C@@H]8C[C@H](O)[C@@]7(C)C(=O)[C@H](OC(C)=O)C(=C5C)C6(C)C)[C@@H](NC(=O)c5ccccc5)c5ccccc5)cc3)[C@H]3COC(=O)[C@H]23)OCO4)cc(OC)c1O
GI50 [1]: 0.0266 µM (active)
GI50 [2]: 0.0189 µM (active)
GI50 [3]: 0.027 µM (active)
GI50 [4]: 13.3 µM
GI50 [5]: 0.0103 µM (active)
GI50 [6]: 0.19 µM (active)
GI50 [7]: < 0.005 µM (active)
GI50 [8]: 0.11 µM (active)
GI50 [9]: 0.022 µM (active)
GI50 [10]: 0.075 µM (active)
GI50 [11]: 0.00929 µM (active)
GI50 [12]: 0.00893 µM (active)
GI50 [14]: 0.356 µM (active)
GI50 [15]: > 37.1 µM (inactive)
GI50 [16]: 0.0335 µM (active)
GI50 [17]: 1.22 µM (inactive)
GI50 [18]: 0.109 µM (active)

CNC1(c2cc3ccccc3s2)CCCCC1
GI50 [1]: 48.1 µM (inactive)
GI50 [2]: 14.9 µM (inactive)
GI50 [3]: 41.5 µM (inactive)
GI50 [4]: 31.8 µM
GI50 [5]: 14.8 µM (inactive)
GI50 [6]: 19.1 µM (inactive)
GI50 [7]: 31.8 µM (inactive)
GI50 [8]: 19.9 µM (inactive)
GI50 [9]: 18 µM (inactive)
GI50 [10]: 32.7 µM (inactive)
GI50 [11]: 17.7 µM (inactive)
GI50 [12]: 28.2 µM (inactive)
GI50 [13]: 27.7 µM (inactive)
GI50 [14]: 37.2 µM (inactive)
GI50 [17]: 41.8 µM (inactive)
GI50 [18]: 18.2 µM (inactive)

O=P1(c2ccccc2)C2=CCC=CC2C(c2ccccc2)N1Cc1ccccc1 (centres undefined)
GI50 [1]: 14.7 µM (inactive)
GI50 [3]: 15.2 µM (inactive)
GI50 [4]: 14.5 µM
GI50 [5]: 11.6 µM (inactive)
GI50 [6]: 16.1 µM (inactive)
GI50 [7]: 16.1 µM (inactive)
GI50 [9]: 17.1 µM (inactive)
GI50 [11]: 13 µM (inactive)
GI50 [14]: 19.6 µM (inactive)
GI50 [16]: 15.5 µM (inactive)
GI50 [17]: 22.4 µM (inactive)
GI50 [19]: 16.3 µM (inactive)
GI50 [18]: 20.1 µM (inactive)

Cc1cccc(=O)c([O-])c1.Cc1cccc(=O)c([O-])c1.[Bi+3].[Cl-]
GI50 [1]: 12.9 µM (inactive)
GI50 [2]: 11.5 µM (inactive)
GI50 [3]: 3.33 µM (inactive)
GI50 [4]: 4.84 µM
GI50 [5]: 11.4 µM (inactive)
GI50 [6]: 12.3 µM (inactive)
GI50 [7]: 4.46 µM (inactive)
GI50 [8]: 9.55 µM (inactive)
GI50 [9]: 7.55 µM (inactive)
GI50 [10]: 18.1 µM (inactive)
GI50 [11]: 4.32 µM (inactive)
GI50 [12]: 2.74 µM (inactive)
GI50 [13]: 6.07 µM (inactive)
GI50 [14]: 3.72 µM (inactive)
GI50 [15]: 5.94 µM (inactive)
GI50 [16]: 16.8 µM (inactive)
GI50 [17]: 15.5 µM (inactive)
GI50 [18]: 8.32 µM (inactive)

CSc1nc(C)c2c(n1)SCC2
GI50 [1]: > 10 µM (inactive)
GI50 [3]: > 10 µM (inactive)
GI50 [4]: > 10 µM
GI50 [5]: > 10 µM (inactive)
GI50 [6]: > 10 µM (inactive)
GI50 [7]: > 10 µM (inactive)
GI50 [8]: > 10 µM (inactive)
GI50 [9]: > 10 µM (inactive)
GI50 [10]: > 10 µM (inactive)
GI50 [11]: > 10 µM (inactive)
GI50 [12]: > 10 µM (inactive)
GI50 [13]: > 10 µM (inactive)
GI50 [14]: > 10 µM (inactive)
GI50 [15]: > 10 µM (inactive)
GI50 [17]: > 10 µM (inactive)
GI50 [19]: > 10 µM (inactive)
GI50 [18]: > 10 µM (inactive)

C[C@@H](N[C@H]1CCC[C@@H]1O)c1ccccc1.C[C@@H](N[C@H]1CCC[C@H]1O)c1ccccc1
GI50 [1]: > 100 µM (inactive)
GI50 [2]: 65.8 µM (inactive)
GI50 [3]: 34.9 µM (inactive)
GI50 [4]: > 100 µM
GI50 [5]: 38.1 µM (inactive)
GI50 [6]: > 100 µM (inactive)
GI50 [7]: 44.9 µM (inactive)
GI50 [8]: 34.4 µM (inactive)
GI50 [9]: 49 µM (inactive)
GI50 [10]: 19.9 µM (inactive)
GI50 [11]: 37.8 µM (inactive)
GI50 [12]: > 100 µM (inactive)
GI50 [13]: > 100 µM (inactive)
GI50 [14]: > 100 µM (inactive)
GI50 [15]: 58.3 µM (inactive)
GI50 [16]: > 100 µM (inactive)
GI50 [17]: 71.8 µM (inactive)
GI50 [18]: > 100 µM (inactive)
